Measurements as given in the NIST ThermoML archive (doi:10.1016/j.fluid.2016.10.026).

Assays:
[1] = refractive index (Na D-line) (dimensionless); conditions: 101 kPa, Liquid, Standard Abbe refractometry
[2] = relative permittivity at zero frequency (dimensionless); conditions: 101 kPa, Liquid, capacitive

CC(=O)c1cccs1 [2-acetylthiophene]
Conditions | refractive index, [1] | relative permittivity at zero frequency, [2]
278.15 K | – | 32.38
280.65 K | – | 32.01
283.15 K | 1.5705 | 31.64
285.65 K | 1.5692 | 31.28
288.15 K | 1.568 | 30.87
290.65 K | 1.567 | 30.47
293.15 K | 1.5658 | 29.94
295.65 K | 1.5646 | 29.69
298.15 K | 1.5633 | 29.19
300.65 K | 1.5622 | 28.92
303.15 K | 1.5609 | 28.47
305.65 K | 1.5599 | 28.14
308.15 K | 1.5586 | 27.76
310.65 K | 1.5573 | 27.43
313.15 K | 1.5562 | 27.05
315.65 K | 1.555 | 26.75
318.15 K | 1.5538 | 26.32
320.65 K | 1.5526 | 25.95
323.15 K | 1.5514 | 25.68
325.65 K | 1.5502 | 25.33
328.15 K | 1.549 | 25.02
330.65 K | 1.548 | 24.7
333.15 K | 1.5468 | 24.33
335.65 K | 1.5455 | 23.98
338.15 K | 1.5443 | 23.6
